Source: ChEMBL document CHEMBL2203235, “Optimization of a natural product-based class of γ-secretase modulators” (J Med Chem, 2012)

Assays:
[1] = Modulation of gamma secretase in CHO-2B7 cells assessed as reduction in amyloid beta 42 level after 5 hrs by MSD ELISA; type: cell-based; conditions: Cricetulus griseus, CHO-2B7, 5 h
Liver microsomes = test: Metabolic stability in human liver microsomes at 1 uM after 60 mins by LC/MS/MS analysis; conditions: 1 h
[2] = Modulation of gamma secretase in CHO-2B7 cells assessed as reduction in amyloid beta 40 level after 5 hrs by MSD ELISA; type: cell-based; conditions: Cricetulus griseus, CHO-2B7, 5 h

SMILES | IC50 [1] | Stability (Liver microsomes) | IC50 [2]
CCO[C@@H]([C@H]1C[C@@H](C)[C@H]2[C@H](O1)[C@H](O)[C@@]1(C)[C@@H]3CC[C@H]4C(C)(C)[C@@H](O[C@H]5CN(CCN(C)C)CCO5)CC[C@@]45C[C@@]35CC[C@]21C)C(C)(C)O | 130 nM | Stable | 3200 nM
CCO[C@@H]([C@H]1C[C@@H](C)[C@H]2[C@H](O1)[C@H](O)[C@@]1(C)[C@@H]3CC[C@H]4C(C)(C)[C@@H](O[C@H]5CN(CC(=O)N6CCOCC6)CCO5)CC[C@@]45C[C@@]35CC[C@]21C)C(C)(C)O | 230 nM | Stable | 14000 nM
CC(C)[C@@H](OC(=O)N1CCC1)[C@H]1C[C@@H](C)[C@H]2[C@H](O1)[C@H](O)[C@@]1(C)[C@@H]3CC[C@H]4C(C)(C)[C@@H](OC(=O)N(C)CC(=O)O)CC[C@@]45C[C@@]35CC[C@]21C | 1790 nM | Stable | 480 nM
CC(C)[C@@H](OC(=O)N1CCC1)[C@H]1C[C@@H](C)[C@H]2[C@H](O1)[C@H](O)[C@@]1(C)[C@@H]3CC[C@H]4C(C)(C)[C@@H](OC(=O)NCC(=O)O)CC[C@@]45C[C@@]35CC[C@]21C | 420 nM | Stable | 7200 nM
CC(C)[C@@H](OC(=O)N1CCC1)[C@H]1C[C@@H](C)[C@H]2[C@H](O1)[C@H](O)[C@@]1(C)[C@@H]3CC[C@H]4C(C)(C)[C@@H](O[C@H]5CN(C6COC6)CCO5)CC[C@@]45C[C@@]35CC[C@]21C | 560 nM | Stable | 11000 nM
CCO[C@@H]([C@H]1C[C@@H](C)[C@H]2[C@H](O1)[C@H](O)[C@@]1(C)[C@@H]3CC[C@H]4C(C)(C)[C@@H](O[C@H]5CN(C6CNC6)CCO5)CC[C@@]45C[C@@]35CC[C@]21C)C(C)(C)O | 100 nM | Stable | 2400 nM
CCO[C@@H]([C@H]1C[C@@H](C)[C@H]2[C@H](O1)[C@H](O)[C@@]1(C)[C@@H]3CC[C@H]4C(C)(C)[C@@H](O[C@H]5CN(C(=O)CC6CN(C)C6)CCO5)CC[C@@]45C[C@@]35CC[C@]21C)C(C)(C)O | 150 nM | Stable | 3100 nM
CCO[C@@H]([C@H]1C[C@@H](C)[C@H]2[C@H](O1)[C@H](O)[C@@]1(C)[C@@H]3CC[C@H]4C(C)(C)[C@@H](OC(=O)NC5COC5)CC[C@@]45C[C@@]35CC[C@]21C)C(C)(C)O | 140 nM | Stable | 5000 nM
CCO[C@@H]([C@H]1C[C@@H](C)[C@H]2[C@H](O1)[C@H](O)[C@@]1(C)[C@@H]3CC[C@H]4C(C)(C)[C@@H](O[C@H]5CN(CCO)CCO5)CC[C@@]45C[C@@]35CC[C@]21C)C(C)(C)O | 260 nM | Stable | 3700 nM
CC(C)[C@@H](OC(=O)N1CCC1)[C@H]1C[C@@H](C)[C@H]2[C@H](O1)[C@H](O)[C@@]1(C)[C@@H]3CC[C@H]4C(C)(C)[C@@H](O[C@H]5CN(C(=O)CN6CCC6)CCO5)CC[C@@]45C[C@@]35CC[C@]21C | 110 nM | Stable | 7700 nM
CC(C)[C@@H](OC(=O)N1CCC1)[C@H]1C[C@@H](C)[C@H]2[C@H](O1)[C@H](O)[C@@]1(C)[C@@H]3CC[C@H]4C(C)(C)[C@@H](OC(=O)NCCNS(=O)(=O)C(F)(F)F)CC[C@@]45C[C@@]35CC[C@]21C | 1500 nM | Stable | 11000 nM
CC(C)[C@@H](OC(=O)N1CCC1)[C@H]1C[C@@H](C)[C@H]2[C@H](O1)[C@H](O)[C@@]1(C)[C@@H]3CC[C@H]4C(C)(C)[C@@H](OC(=O)N[C@H]5CCCNC5=O)CC[C@@]45C[C@@]35CC[C@]21C | 280 nM | Stable | 6400 nM
CC(C)[C@@H](OC(=O)N1CCC1)[C@H]1C[C@@H](C)[C@H]2[C@H](O1)[C@H](O)[C@@]1(C)[C@@H]3CC[C@H]4C(C)(C)[C@@H](OC(=O)NC5CN(C)C5)CC[C@@]45C[C@@]35CC[C@]21C | 170 nM | Stable | 6500 nM
CCO[C@@H]([C@H]1C[C@@H](C)[C@H]2[C@H](O1)[C@H](O)[C@@]1(C)[C@@H]3CC[C@H]4C(C)(C)[C@@H](O[C@H]5CN(C6CCOCC6)CCO5)CC[C@@]45C[C@@]35CC[C@]21C)C(C)(C)O | 350 nM | Stable | 5000 nM
CNC(=O)O[C@H]1CC[C@]23C[C@]24CC[C@]2(C)[C@@H]5[C@H](O[C@@H]([C@H](OC(=O)N6CCC6)C(C)C)C[C@H]5C)[C@H](O)[C@@]2(C)[C@@H]4CC[C@H]3C1(C)C | 760 nM | Stable | 8700 nM
CC(C)[C@@H](OC(=O)N1CCC1)[C@H]1C[C@@H](C)[C@H]2[C@H](O1)[C@H](O)[C@@]1(C)[C@@H]3CC[C@H]4C(C)(C)[C@@H](OC(=O)NCCC(=O)O)CC[C@@]45C[C@@]35CC[C@]21C | 610 nM | Stable | 13000 nM
CC(C)[C@@H](OC(=O)N1CCC1)[C@H]1C[C@@H](C)[C@H]2[C@H](O1)[C@H](O)[C@@]1(C)[C@@H]3CC[C@H]4C(C)(C)[C@@H](OC(=O)N(C)C)CC[C@@]45C[C@@]35CC[C@]21C | 1300 nM | Stable | 1400 nM
CCO[C@@H]([C@H]1C[C@@H](C)[C@H]2[C@H](O1)[C@H](O)[C@@]1(C)[C@@H]3CC[C@H]4C(C)(C)[C@@H](OC(=O)N5CC[C@@H](C(=O)O)C5)CC[C@@]45C[C@@]35CC[C@]21C)C(C)(C)O | 540 nM | Stable | 14000 nM
CCO[C@@H]([C@H]1C[C@@H](C)[C@H]2[C@H](O1)[C@H](O)[C@@]1(C)[C@@H]3CC[C@H]4C(C)(C)[C@@H](OC(=O)NCCN(C)C)CC[C@@]45C[C@@]35CC[C@]21C)C(C)(C)O | 240 nM | Stable | 17000 nM
CC(C)[C@@H](OC(=O)N1CCC1)[C@H]1C[C@@H](C)[C@H]2[C@H](O1)[C@H](O)[C@@]1(C)[C@@H]3CC[C@H]4C(C)(C)[C@@H](OC(=O)NCCCC(=O)O)CC[C@@]45C[C@@]35CC[C@]21C | 280 nM | Stable | 7200 nM
CCO[C@@H]([C@H]1C[C@@H](C)[C@H]2[C@H](O1)[C@H](O)[C@@]1(C)[C@@H]3CC[C@H]4C(C)(C)[C@@H](OC(=O)N5CCC5)CC[C@@]45C[C@@]35CC[C@]21C)C(C)(C)O | 140 nM | Stable | 5000 nM
CCO[C@@H]([C@H]1C[C@@H](C)[C@H]2[C@H](O1)[C@H](O)[C@@]1(C)[C@@H]3CC[C@H]4C(C)(C)[C@@H](OC(=O)N5CCN(CC(=O)O)CC5)CC[C@@]45C[C@@]35CC[C@]21C)C(C)(C)O | 290 nM | Stable | 10000 nM
